Experimental data taken from PubChem BioAssay AID652247 (Sanford-Burnham Center for Chemical Genomics, 2013).
Calls of active or inactive are those of the source. How the calls were made is not given here.

Target: NEDD8-conjugating enzyme Ubc12 (Homo sapiens) + NEDD8-activating enzyme E1 regulatory subunit (Homo sapiens) (UniProt P61081+Q13564)
Assay: inhibitors of CUL1 neddylation, potency, dose response, biochemical, TR-FRET (AID 652247)
Conditions: in vitro CUL1 neddylation

Chain of NEDD8-conjugating enzyme Ubc12 (Homo sapiens) + NEDD8-activating enzyme E1 regulatory subunit (Homo sapiens) (P61081 whole entry, looked up): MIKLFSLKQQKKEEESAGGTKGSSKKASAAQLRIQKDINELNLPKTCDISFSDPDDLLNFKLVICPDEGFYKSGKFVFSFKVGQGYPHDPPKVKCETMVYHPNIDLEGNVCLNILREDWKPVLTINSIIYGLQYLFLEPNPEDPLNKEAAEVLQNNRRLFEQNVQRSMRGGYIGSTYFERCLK
Chain of NEDD8-conjugating enzyme Ubc12 (Homo sapiens) + NEDD8-activating enzyme E1 regulatory subunit (Homo sapiens) (Q13564 whole entry, looked up): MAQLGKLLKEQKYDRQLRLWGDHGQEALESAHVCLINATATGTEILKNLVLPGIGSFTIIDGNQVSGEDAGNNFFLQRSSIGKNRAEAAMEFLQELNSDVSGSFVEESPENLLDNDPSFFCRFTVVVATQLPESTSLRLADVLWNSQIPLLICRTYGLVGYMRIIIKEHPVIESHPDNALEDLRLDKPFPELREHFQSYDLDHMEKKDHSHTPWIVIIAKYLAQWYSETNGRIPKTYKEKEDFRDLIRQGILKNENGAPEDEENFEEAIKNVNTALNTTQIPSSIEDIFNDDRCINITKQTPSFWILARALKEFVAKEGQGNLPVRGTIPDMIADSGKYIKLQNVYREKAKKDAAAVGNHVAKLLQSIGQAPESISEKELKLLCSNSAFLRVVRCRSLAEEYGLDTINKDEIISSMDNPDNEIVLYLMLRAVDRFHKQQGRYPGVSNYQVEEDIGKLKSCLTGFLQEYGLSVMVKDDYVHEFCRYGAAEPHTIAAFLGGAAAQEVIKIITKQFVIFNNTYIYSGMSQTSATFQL

Row | SMILES | IC50
1 | CS(=O)(=O)c1ccc2nc(NC(=O)c3ccc(Cl)nc3)sc2c1 | 14 µM
2 | CC(C)(C)c1ccc(/C=C2\CCn3c2nc2cc(C(=O)O)ccc2c3=O)cc1 | inactive
3 | Cc1ccc(-c2cc(-c3ccc(C)cc3)[n+](-c3ccc(C(=O)[O-])cc3)c(-c3ccc(C)cc3)c2)cc1 | inactive
4 | COc1ccc2sc(-c3ccc(SC)cc3)c(C#CCO)c2c1 | inactive
5 | O=C(N/N=C/c1cccnc1)c1ccc(CN2c3cccc4cccc(c34)S2(=O)=O)cc1 | inactive
6 | O=C(CN1c2cccc3cccc(c23)S1(=O)=O)NCc1ccc(F)cc1 | inactive
7 | CN1CCOc2c1cnn(CCO)c2=O | inactive
8 | CN(C)c1ccc(-c2nc3cnccn3c2Nc2ccc3c(c2)OCCO3)cc1 | inactive
9 | CN(C)c1ccc(/C=N/NC(=O)C2CC2c2ccccc2)cc1 (stereo unspecified) | inactive
10 | CCOc1ccc2[nH]c(C(=O)N/N=C/c3cccc(OC)c3OC)cc2c1 | inactive
11 | CCC(=O)Nc1nnc(/C=C/c2ccccc2)s1 | > 100 µM (inactive)
12 | CN=Cc1c(NC)nc2c(C)cccn2c1=O | inactive
13 | COC(=O)c1ccc(/C=C2\CCn3c2nc2cc(C(=O)O)ccc2c3=O)cc1 | inactive
14 | c1cn2c(-c3ccoc3)cncc2n1 | inactive
15 | Oc1ccc(Br)cc1C=Nc1ccc2c3c(cccc13)CC2 | 12.1 µM
16 | Cc1c(C(C)NC(=O)c2cc(COc3cccc4cnccc34)on2)cnn1C (stereo unspecified) | inactive
17 | Cc1ccc2cc3cc(C(=O)NCCCN4CCc5ccccc5C4)oc3nc2c1 | 10.6 µM
18 | CCCN(CC(=O)Nc1ccccc1C)C(=O)c1ccc(-c2ccc(C(C)=O)cc2)o1 | 14.7 µM
19 | O=C(O)c1cc(N2CCCCC2)nc2ccccc12 | inactive
20 | CCOC(=O)C1=C(COCCN)NC(C)=C(C(=O)OC)C1c1ccccc1Cl (stereo unspecified) | inactive
21 | COc1cc(-c2cc(C(=O)N3CCCCCC3)c3ccccc3n2)cc(OC)c1OC | inactive
22 | CCOc1ccccc1NC(=O)CN1c2cccc3cccc(c23)S1(=O)=O | inactive
23 | COCCCNC(=O)/C(C#N)=C/c1c(N2CCN(c3ccccc3)CC2)nc2ccccn2c1=O | inactive
24 | CS(=O)(=O)N(CC(=O)N/N=C/c1cccc2c1OCCO2)c1ccccc1Br | inactive

Row | SMILES | IC50
25 | COC(=O)c1ccc(-c2ccc(/C=N/NC(=O)CC3(C)OCCCO3)o2)cc1 | inactive
26 | COCCNC(=O)c1ccc2c3n(nc2c1)-c1ccc(C)cc1CO3 | inactive
27 | Cc1ccc(C)c(OCC(=O)N/N=C/c2ccc(N3CCOCC3)cc2)c1 | inactive
28 | Cc1cc(=O)oc2cc(NC(=O)CN3C(=O)NC(C)(c4ccccc4)C3=O)ccc12 (stereo unspecified) | inactive
29 | CCNC(=O)/C(C#N)=C/c1c(N2CCN(c3ccccc3)CC2)nc2ccccn2c1=O | inactive
30 | C=CCNC(=S)N/N=C/c1ccc(N(CC)Cc2ccccc2)cc1 | inactive
31 | COc1ccc(-c2cc3nc(NCCN4CCCC4)n(C)c(=O)c3s2)cc1OC | inactive
32 | Cc1ccc2oc(-c3ccco3)cc(=O)c2c1 | inactive
33 | O=C(O)c1ccc(/C=N/NC(=O)c2ccc(CN3c4cccc5cccc(c45)S3(=O)=O)cc2)cc1 | inactive
34 | Cc1cc(NS(=O)(=O)c2ccc(NS(=O)(=O)c3ccc(Br)cc3)cc2)no1 | inactive
35 | O=C(O)CCc1ccc(-c2ccccc2)n1CC1CCCO1 (stereo unspecified) | inactive
36 | Cc1cccn2c(=O)c3cc(C(=O)N4CCCCC4C)sc3nc12 (stereo unspecified) | inactive
37 | Cn1ncc2cc3c(Nc4ccc(Cl)cc4)cccc3nc21 | inactive
38 | COC(=O)C1=C(C)NC2=C(C(=O)CCC2)C1c1ccc(-c2ccsc2C(=O)OC)o1 (stereo unspecified) | inactive
39 | COc1ccc(CC(=O)N/N=C\c2cc(Br)c(O)c(Br)c2)cc1 | inactive
40 | CC1CCN(C(=O)CN2c3cccc4cccc(c34)S2(=O)=O)CC1 | inactive
41 | N#Cc1c2c(c(NCCOCCO)n3c1nc1ccccc13)CCCC2 | inactive
42 | Cc1cccc(C)c1NC(=O)C(c1ccncc1)n1c(=O)c(-c2ccccc2)nc2ccccc21 (stereo unspecified) | inactive
43 | Cc1c(Cc2ccccc2)c(=O)oc2c(C)c(OCc3nn[nH]n3)ccc12 | > 100 µM (inactive)
44 | COC(=O)C1C(O)=C(C=Nc2cccc3ccccc23)C(=O)CC1(C)C (stereo unspecified) | inactive
45 | COCCN1C=C(C(=O)OC)C(c2ccc3c(c2)OCO3)C(C(=O)OC)=C1 | inactive
46 | CCN(CC)c1ccc(/C=N/NC(=O)C2CC2)cc1 | inactive
47 | O=C(Nc1cc(C(=O)Nc2ccccc2C(=O)O)cc(C(=O)Nc2ccccc2C(=O)O)c1)c1ccccc1 | > 100 µM (inactive)
48 | c1ccc(C[n+]2cccc3c4ccccc4ccc32)cc1 | 9.52 µM

Row | SMILES | IC50
49 | Nc1ncnc2c1ncn2[C@@H]1O[C@H](COP(=O)(O)O)[C@@H](O)[C@H]1O | inactive
50 | CSc1cnc2c(=O)n(C)c(=O)[nH]c2n1 | inactive
51 | Nc1cccc2c(=O)[nH][nH]c(=O)c12 | inactive
52 | CCCCc1c(O)n2c(nc3ccccc32)[nH]c1=O | inactive
53 | c1cnc2cc(-c3ccsc3)ncc2c1 | inactive
54 | COc1ccccc1N(C(=O)c1snc(C(N)=O)c1N)C(C(=O)NC1CCCC1)c1ccco1 (stereo unspecified) | inactive
55 | CCN(CC)c1ccc(/C=N/NC(=O)C(O)c2ccccc2)cc1 (stereo unspecified) | inactive
56 | CCN(CC)CCOC(=O)c1ccc(N/C=C(/C#N)c2nc(-c3ccc(OC)cc3)cs2)cc1 | > 100 µM (inactive)
57 | C=CCNC(=O)c1ccc2c3n(nc2c1)-c1ccc(C)cc1CO3 | inactive
58 | O=C(N/N=C/c1ccc2cccnc2c1)c1nc2ccccc2c(=O)[nH]1 | > 100 µM (inactive)
59 | O=c1[nH]c2ccccc2nc1-c1ccccc1 | inactive
60 | Cc1ccc2cc3cc(C(=O)NCCN4CCOCC4)oc3nc2c1 | 16.9 µM
61 | Nc1ncnc2c1ncn2C1OC(COP(=O)(O)O)C(O)C1O (stereo unspecified) | 17.4 µM
62 | O=C(N/N=C/c1c(O)n(-c2ccccc2Cl)c(=O)c2ccccc12)C1COc2ccccc2O1 (stereo unspecified) | inactive
63 | COCCNc1c2c(c(C#N)c3nc4ccccc4n13)CCCC2 | inactive
64 | COC(=O)c1ccc2[nH]c3c(c2c1)CC(C)CC3 (stereo unspecified) | inactive
65 | CC(NC(=O)C1=CC=CN2CCS(=O)(=O)N=C12)c1ccc(Cl)c(Cl)c1 (stereo unspecified) | inactive
66 | OC1CCCN(Cc2c3ccccc3cc3ccccc23)C1 (stereo unspecified) | inactive
67 | CCOc1cc(/C=C/C(=O)Nc2ccc(C(=O)NCCN(CC)CC)cc2)ccc1OCC(C)C | inactive
68 | N#Cc1ccc(/C=C2\CCn3c2nc2cc(C(=O)O)ccc2c3=O)cc1 | 14.5 µM
69 | CCCCn1c(O)c(/C=N/NC(=O)c2ccncc2)c(=O)[nH]c1=S | inactive
70 | Cc1cccn2c(=O)c(C=NCc3ccccc3)c(NCCO)nc12 | inactive
71 | Cc1cccc(OCC(=O)N/N=C/c2ccc(N(C)C)cc2)c1 | inactive
72 | CN(C)c1ccc(/C=N/NC(=O)COc2ccccc2)cc1 | inactive

Row | SMILES | IC50
73 | O=c1c[n+]([O-])c2ccccc2n1OCc1c(F)cccc1F | inactive
74 | COc1ccc2[nH]c(C(=O)N/N=C/c3cc(OC)c(OC)c(OC)c3)cc2c1 | inactive
75 | Cc1ccc(C(C(=O)NCC2CCCO2)N(C(=O)c2snc(C(N)=O)c2N)c2ccc(F)cc2)o1 (stereo unspecified) | > 100 µM (inactive)
76 | N=c1c(C(=O)NCCN2CCOCC2)cc2c(=O)n3ccccc3nc2n1Cc1ccc(F)cc1 | 16.5 µM
77 | COc1ccc(C(=O)n2cc(C(=O)c3cc(C)ccc3O)cn2)cc1OC | inactive
78 | Cc1cc(-c2ccccc2)c2nncn2n1 | inactive
79 | O=C1NC(=O)c2cc3ccccc3cc21 | > 100 µM (inactive)
80 | O=C(O)Cn1c(=O)c(-c2ccccc2)nc2ccccc21 | inactive
81 | COc1ccc(-n2cc(CNCc3cnc4ccccn34)c(-c3cccc(F)c3)n2)cc1 | inactive
82 | COC(=O)c1sc2nc3c(cc2c1N)COC(C)(C)C3 | inactive
83 | CN(C)CCn1c(SCc2ccccc2C#N)nc2c(sc3ccccc32)c1=O | inactive
84 | CCc1c(C)c2ccc(OC(C)C(=O)NC(Cc3c[nH]c4ccc(O)cc34)C(=O)O)c(C)c2oc1=O (stereo unspecified) | inactive
85 | COc1cc(C=NNC(=O)c2ccc(NS(=O)(=O)c3cccs3)cc2)cc(Br)c1O | inactive
86 | COc1cc(/C=N/Nc2nc3ccccc3[nH]2)cc(Br)c1OCC(=O)N(C)C | inactive
87 | CC1CCCC(C)N1C(=O)CN1c2cccc3cccc(c23)S1(=O)=O (stereo unspecified) | inactive
88 | CC(=O)Nc1ccc(NC(=O)c2cc(-c3ccc(C)cc3O)n[nH]2)cc1 | 9.68 µM
89 | COCCNC(=O)CSc1ccc(-c2nc3ccccc3[nH]2)cn1 | inactive
90 | CN(C)CCNc1nc(-c2ccco2)c2c(c1C#N)CC(C)(C)OC2 | inactive
91 | CC1(C)CC(NC(=O)COc2ccc3c4c(c(=O)oc3c2)CCCC4)CC(C)(C)N1 | inactive
92 | c1ccc(-c2oc3ncnc(NCCCN4CCOCC4)c3c2-c2ccccc2)cc1 | inactive
93 | O=C(CCCc1c[nH]c2ccccc12)N1CCN(c2ccc(N3CCOCC3)nn2)CC1 | inactive
94 | O=C(NCCc1ccc(Cl)cc1Cl)C1=CC=CN2CCS(=O)(=O)N=C12 | inactive
95 | COC(=O)CSc1ccc2c(N)c(C(=O)OC)sc2c1 | inactive
96 | CC(=O)OCCc1c2ccccc2c(CCCN(C)C)c2ccccc12 | 11.9 µM
